Consider 37 compounds from patent US9006232B2, “Pyrimidone derivatives” (Mitsubishi Tanabe Pharma Corporation, priority 2009, dated 2015).

Chain of bovine cerebral TPK1 (A0A059UE90 1-419): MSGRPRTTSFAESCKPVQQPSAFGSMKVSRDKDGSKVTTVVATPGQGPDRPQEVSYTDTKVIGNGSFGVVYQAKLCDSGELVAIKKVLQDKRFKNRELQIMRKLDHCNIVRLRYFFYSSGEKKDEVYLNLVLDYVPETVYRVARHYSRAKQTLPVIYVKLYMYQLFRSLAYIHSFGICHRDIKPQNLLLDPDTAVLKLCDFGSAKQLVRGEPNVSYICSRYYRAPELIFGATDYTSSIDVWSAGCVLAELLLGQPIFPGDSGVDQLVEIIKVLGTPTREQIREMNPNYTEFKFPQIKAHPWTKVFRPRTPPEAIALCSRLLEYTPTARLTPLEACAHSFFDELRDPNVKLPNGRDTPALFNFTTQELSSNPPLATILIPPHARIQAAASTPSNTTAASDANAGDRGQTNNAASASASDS

This assay addresses bovine cerebral TPK1 (Bos taurus, UniProt A0A059UE90). Description: Inhibitory activity against P-GS1 phosphorylation by bovine cerebral TPK1. The settings on record: P-GS1 phosphorylation, 41.7 μM [γ-32P] ATP, 25° C., 2 hours; read-out: IC50. Type of assay: biochemical. How it is done:
Inhibitory Activity of the Medicament of the Present Invention Against P-GS1 Phosphorylation by Bovine Cerebral TPK1 […] The phosphorylation was started by adding ATP, and the reaction was conducted at 25° C. for 2 hours, and then stopped by adding 21% perchloric acid on ice cooling. The reaction mixture was centrifuged at 12,000 rpm for 5 minutes and adsorbed on P81 paper (Whatmann), and then the paper was washed four times with 75 mM phosphoric acid, three times with water and once with acetone. The paper was dried, and the residual radioactivity was measured using a liquid scintillation counter.
By IC50 is commonly meant the point on the concentration scale where inhibition reaches its midpoint. Regarding `Cn1c(OC2CCCN(c3ccccc3F)C2)nc(-c2ccncn2)cc1=O` (stereo not shown) [1.103, 2-[1-(2-Fluoro-phenyl)piperidin-3-yloxy]-1-methyl-1H-[4,4′] bipyrimidinyl-6-one], the IC50 is 49 nM. In the case of `Cn1c(OC2CCCN(c3cccc(F)c3)C2)nc(-c2ccncn2)cc1=O` (stereo not shown) [1.104, 2-[1-(3-Fluoro-phenyl)piperidin-3-yloxy]-1-methyl-1H-[4,4′] bipyrimidinyl-6-one], the half-maximal inhibitory concentration (IC50) stood at 8.9 nM.

Consider `Cn1c(OC2CCCN(c3ccc(F)cc3)C2)nc(-c2ccncn2)cc1=O` (stereo not shown) [1.105, 2-[1-(4-Fluoro-phenyl)piperidin-3-yloxy]-1-methyl-1H-[4,4′] bipyrimidinyl-6-one], for which the half-inhibitory concentration (IC50) is 61.4 nM. Consider `COc1cccc(N2CCCC(Oc3nc(-c4ccncn4)cc(=O)n3C)C2)c1` (stereo not shown) [1.106, 2-[1-(3-Methoxy-phenyl)piperidin-3-yloxy]-1-methyl-1H-[4,4′]bipyrimidinyl-6-one], for which the half-maximal inhibitory concentration (IC50) is 1.5 nM. Turning to `COc1ccc(N2CCCC(Oc3nc(-c4ccncn4)cc(=O)n3C)C2)cc1` (stereo not shown) [1.107, 2-[1-(4-Methoxy-phenyl)piperidin-3-yloxy]-1-methyl-1H-[4,4′]bipyrimidinyl-6-one], the IC50 worked out at 98.2 nM. Turning to `Cn1c(OC2CCCN(c3ccccn3)C2)nc(-c2ccncn2)cc1=O` (stereo not shown) [1.108, 1-Methyl-2-(1-pyridin-2-yl-piperidin-3-yloxy)-1H-[4,4′]bipyrimidinyl-6-one], the IC50 is 11.7 nM. For `Cn1c(OC2CCCN(S(=O)(=O)c3ccccc3)C2)nc(-c2ccncn2)cc1=O` (stereo not shown) [1.109, 2-(1-Benzenesulfonyl-piperidin-3-yloxy)-1-methyl-1H-[4,4′] bipyrimidinyl-6-one], the IC50 was found to be 76.1 nM. Consider `Cn1c(OC2CCN(C(=O)OCc3ccccc3)CC2)nc(-c2ccncn2)cc1=O` [1.110, Benzyl 4-(1-methyl-6-oxo-1,6-dihydro-[4,4′]bipyrimidinyl-2-yloxy) piperidine-1-carboxylate], for which the IC50 stood at 140 nM. For `Cc1ccc(S(=O)(=O)N2CCC(Oc3nc(-c4ccncn4)cc(=O)n3C)CC2)cc1` [1.111, 1-Methyl-2-[1-(toluene-4-sulfonyl)piperidin-4-yloxy]-1H-[4,4′] bipyrimidinyl-6-one] the value was 194 nM; for `Cn1c(OC2CCN(C(=O)Oc3ccccc3)CC2)nc(-c2ccncn2)cc1=O` [1.112, Phenyl 4-(1-methyl-6-oxo-1,6-dihydro-[4,4′]bipyrimidinyl-2-yloxy) piperidine-1-carboxylate], 108 nM; for `Cn1c(OC2CCNCC2)nc(-c2ccncc2F)cc1=O` [1.204, 6-(3-Fluoro-pyridin-4-yl)-3-methyl-2-(piperidin-4-yloxy)-3H-pyrimidin-4-one], 245 nM. As to `Cn1c(OC2CCN(c3ccccc3)CC2)nc(-c2ccncn2)cc1=O` [1.205, 1-Methyl-2-(1-phenyl-piperidin-4-yloxy)-1H-[4,4′]bipyrimidinyl-6-one], the 50% inhibitory concentration (IC50) was found to be 37.6 nM. For the compound `Cc1ccccc1N1CCC(Oc2nc(-c3ccncn3)cc(=O)n2C)CC1` [1.206, 1-Methyl-2-(1-o-tolyl-piperidin-4-yloxy)-1H-[4,4′]bipyrimidinyl-6-one], the IC50 is 59.9 nM. `Cn1c(OC2CCN(c3ccc(-c4ccncc4)cc3)CC2)nc(-c2ccncc2F)cc1=O` [1.207, 6-(3-Fluoro-pyridin-4-yl)-3-methyl-2-[1-(4-pyridin-4-yl-phenyl)piperidin-4-yloxy]-3H-pyrimidin-4-one]: the IC50 is 32.6 nM. The same measure for `Cn1c(OC2CCN(c3ccc(N4CCNCC4)cc3)CC2)nc(-c2ccncn2)cc1=O` [1.208, 1-Methyl-2-[1-(4-piperazin-1-yl-phenyl)-piperidin-4-yloxy]-1H-[4,4′]bipyrimidinyl-6-one]: 10.7 nM. The same measure for `CN1CCN(c2ccc(N3CCC(Oc4nc(-c5ccncn5)cc(=O)n4C)CC3)cc2)CC1` [1.209, 1-Methyl-2-{1-[4-(4-methyl-piperazin-1-yl)phenyl]piperidin-4-yloxy}-1H-[4,4′]bipyrimidinyl-6-one]: 17.9 nM.

`CC(=O)N1CCN(c2ccc(N3CCC(Oc4nc(-c5ccncn5)cc(=O)n4C)CC3)cc2)CC1` [1.210, 2-{1-[4-(4-Acetyl-piperazin-1-yl)phenyl]piperidin-4-yloxy}-1-methyl-1H-[4,4′]bipyrimidinyl-6-one]: the IC50 is 27.4 nM. As to `Cn1c(OC2CCN(c3ccc(N4CCN(C(=O)OC(C)(C)C)CC4)cc3)CC2)nc(-c2ccncn2)cc1=O` [1.211, tert-Butyl 4-{4-[4-(1-methyl-6-oxo-1,6-dihydro-[4,4′]bipyrimidinyl-2-yloxy)piperidin-1-yl]phenyl}piperazine-1-carboxylate], the IC50 came out at 977 nM. On to `CC(=O)N1CCN(Cc2ccc(N3CCC(Oc4nc(-c5ccncn5)cc(=O)n4C)CC3)cc2)CC1` [1.212, 2-{1-[4-(4-Acetyl-piperazin-1-ylmethyl)phenyl]piperidn-4-yloxy}-1-methyl-1H-[4,4′]bipyrimidinyl-6-one], for which the IC50 stood at 64.9 nM.

As to `Cn1c(OC2CCN(c3ccc(CN4CCOCC4)cc3)CC2)nc(-c2ccncn2)cc1=O` [1.213, 1-Methyl-2-[1-(4-morpholin-4-ylmethyl-phenyl)piperidin-4-yloxy]-1H-[4,4′]bipyrimidinyl-6-one], the half-inhibitory concentration (IC50) was 19.4 nM.

Take `Cn1c(OC2CCN(c3ccc(CN4CCCCC4)cc3)CC2)nc(-c2ccncn2)cc1=O` [1.214, 1-Methyl-2-[1-(4-piperidin-1-ylmethyl-phenyl)piperidin-4-yloxy]-1H-[4,4′]bipyrimidinyl-6-one]: the IC50 worked out at 16.1 nM. For `Cn1c(OC2CCN(c3ccc(CN4CCCCC4)cc3)CC2)nc(-c2ccncc2)cc1=O` [1.215, 3-Methyl-2-[1-(4-piperidin-1-ylmethyl-phenyl)piperidin-4-yloxy]-6-pyridin-4-yl-3H-pyrimidin-4-one] the value was 50.1 nM. For the compound `Cn1c(OC2CCN(c3ccc(CN4CCCCC4)cc3)CC2)nc(-c2ccncc2F)cc1=O` [1.216, 6-(3-Fluoro-pyridin-4-yl)-3-methyl-2-[1-(4-piperidin-1-ylmethyl-phenyl)piperidin-4-yloxy]-3H-pyrimidin-4-one], the concentration for half-maximal inhibition (IC50) was found to be 10.9 nM. For the compound `Cn1c(OC2CCN(c3ccc(CN4CCCC4)cc3)CC2)nc(-c2ccncn2)cc1=O` [1.217, 1-Methyl-2-[1-(4-pyrrolidin-1-ylmethyl-phenyl)piperidin-4-yloxy]-1H-[4,4′]bipyrimidinyl-6-one], the half-maximal inhibitory concentration (IC50) worked out at 12 nM. For `Cn1c(OC2CCN(c3ccc(CN4CCCC4=O)cc3)CC2)nc(-c2ccncc2F)cc1=O` [1.218, 6-(3-Fluoro-pyridin-4-yl)-3-methyl-2-{1-[4-(2-oxo-pyrrolidin-1-ylmethyl)phenyl]piperidin-4-yloxy}-3H-pyrimidin-4-one] the value was 153 nM. `Cn1c(OC2CCN(c3ccc(CN4Cc5ccccc5C4)cc3)CC2)nc(-c2ccncn2)cc1=O` [1.219, 2-{1-[4-(1,3-Dihydro-isoindol-2-ylmethyl)phenyl]piperidin-4-yloxy}-1-methyl-1H-[4,4′]bipyrimidinyl-6-one]: the IC50 is 8.4 nM. For `CN(C)Cc1ccc(N2CCC(Oc3nc(-c4ccncn4)cc(=O)n3C)CC2)cc1` [1.220, 2-[1-(4-Dimethylaminomethyl-phenyl)piperidin-4-yloxy]-1-methyl-1H-[4,4′]bipyrimidinyl-6-one] the value was 21.2 nM. The same measure for `Cn1c(OC2CCN(c3cccc(CN4CCOCC4)c3)CC2)nc(-c2ccncn2)cc1=O` [1.221, 1-Methyl-2-[1-(3-morpholin-4-ylmethyl-phenyl)piperidin-4-yloxy]-1H-[4,4′]bipyrimidinyl-6-one]: 31.5 nM; for `CN1CCN(Cc2cccc(N3CCC(Oc4nc(-c5ccncn5)cc(=O)n4C)CC3)c2)CC1` [1.222, 1-Methyl-2-{1-[3-(4-methyl-piperazin-1-ylmethyl)phenyl]piperidin-4-yloxy}-1H-[4,4′] bipyrimidinyl-6-one]: 21.5 nM; for `Cn1c(OC2CCN(c3cccc(CN4CCCCC4)c3)CC2)nc(-c2ccncn2)cc1=O` [1.223, 1-Methyl-2-[1-(3-piperidin-1-ylmethyl-phenyl)piperidin-4-yloxy]-1H-[4,4′]bipyrimidinyl-6-one]: 9.4 nM.

Regarding `Cn1c(OC2CCN(c3cccnc3)CC2)nc(-c2ccncn2)cc1=O` [1.224, 1-Methyl-2-(1-pyridin-3-yl-piperidin-4-yloxy)-1H-[4,4′]bipyrimidinyl-6-one], the half-inhibitory concentration (IC50) came to 29.8 nM. On to `Cn1c(OC2CCN(c3ccc4c(c3)CNC4)CC2)nc(-c2ccncn2)cc1=O` [1.225, 2-[1-(2,3-Dihydro-1H-isoindol-5-yl)piperidin-4-yloxy]-1-methyl-1H-[4,4′]bipyrimidinyl-6-one], for which the IC50 turned out to be 9.4 nM. For `CN1Cc2ccc(N3CCC(Oc4nc(-c5ccncn5)cc(=O)n4C)CC3)cc2C1` [1.226, 1-Methyl-2-[1-(2-methyl-2,3-dihydro-1H-isoindol-5-yl)piperidin-4-yloxy]-1H-[4,4′]bipyrimidinyl-6-one] the value was 23.7 nM.

Take `Cn1c(OC2CCN(c3ccc4c(c3)CN(Cc3ccccc3)C4)CC2)nc(-c2ccncn2)cc1=O` [1.227, 2-[1-(2-Benzyl-2,3-dihydro-1H-isoindol-5-yl)piperidin-4-yloxy]-1-methyl-1H-[4,4′]bipyrimidinyl-6-one]: the half-inhibitory concentration (IC50) is 16 nM. In the case of `Cn1c(OC2CCN(c3ccc([N+](=O)[O-])s3)CC2)nc(-c2ccncn2)cc1=O` [1.228, 1-Methyl-2-[1-(5-nitro-thiophen-2-yl)piperidin-4-yloxy]-1H-[4,4′] bipyrimidinyl-6-one], the half-maximal inhibitory concentration (IC50) came out at 555 nM. Turning to `Cn1c(OC2CCN(c3cncnc3)CC2)nc(-c2ccncc2F)cc1=O` [1.229, 6-(3-Fluoro-pyridin-4-yl)-3-methyl-2-(1-pyrimidin-5-yl-piperidin-4-yloxy)-3H-pyrimidin-4-one], the IC50 came out at 216 nM. For `CC(=O)N1Cc2ccc(N3CCC(Oc4nc(-c5ccncn5)cc(=O)n4C)CC3)cc2C1` [1.230, 2-[1-(2-Acetyl-2,3-dihydro-1H-isoindol-5-yl)piperidin-4-yloxy]-1-methyl-1H-[4,4′]bipyrimidinyl-6-one] the value was 154 nM.
